From patent US8133847B2, “Pyrido[2,3-B]pyrazine derivatives useful as herbicidal compounds” (Syngenta Limited, priority 2006, dated 2012)

How the values were obtained:
Format in all cases: in vivo
[1] = system: test plants (a variety of test species); assay: Example B2 herbicidal action, post-emergence, pots in glasshouse; settings: evaluated after 13 days, 100=total damage to plant, 0=no damage to plant
Method: (§1) Seeds of a variety of test species were sown in standard soil in pots. After 8 days cultivation (post-emergence) under controlled conditions in a glasshouse (at 24/16° C., day/night; 14 hours light; 65% humidity), the plants were sprayed with an aqueous spray solution derived from the formulation of the technical active ingredient in acetone/water (50:50) solution containing 0.5% Tween 20 (polyoxyethylene sorbitan monolaurate, CAS RN 9005-64-5). The test plants were then grown in a glasshouse under controlled conditions in a glasshouse (at 24/16° C., day/night; 14 hours light; 65% humidity) and watered twice daily. After 13 days, the test was evaluated (100=total damage to plant; 0=no damage to plant).

[2] = system: Chenopodium album (CHEAL); assay: Example B3 herbicidal action, post-emergence; settings: 1000 g/ha, after 13 days, 100=total damage to plant, 0=no damage to plant
Method: (§2) Seeds of a variety of test species were sown in sterilised compost in small pots. After cultivation for seven days (post-emergence) in controlled conditions in the glasshouse (at 24/16° C., day/night; 14 hours light; 65% humidity) the plants were sprayed with 1 mg of the active ingredient, formulated in 2.5 ml acetone/water (50:50) solution, which is equivalent to 1000 g/ha. Once the foliage was dry, the pots were kept in the glasshouse (at 24/16° C., day/night; 14 hours light; 65% humidity), and were watered twice daily. After 13 days the test was evaluated (100=total damage to plant, 0=no damage to plant).

[3] = system: Digitaria sanguinalis (DIGSA); assay: Example B3 herbicidal action, post-emergence; settings: 1000 g/ha, after 13 days, 100=total damage to plant, 0=no damage to plant
Method: as §2

[4] = system: Alopecurus myosuroides (ALOMY); assay: Example B3 herbicidal action, post-emergence; settings: 1000 g/ha, after 13 days, 100=total damage to plant, 0=no damage to plant
Method: as §2

[5] = system: Amaranthus retroflexus (AMARE); assay: Example B3 herbicidal action, post-emergence; settings: 1000 g/ha, after 13 days, 100=total damage to plant, 0=no damage to plant
Method: as §2

Setaria faberi (SETFA) = assay: Example B2 herbicidal action, post-emergence, pots in glasshouse; settings: Application post-emergence, evaluated after 13 days (100=total damage to plant; 0=no damage to plant)
Method: as §1

Solanum nigrum (SOLNI) = assay: as above; settings: Application post-emergence, evaluated after 13 days
Method: as §1

[6] = system: Ipomea hederaceae (IPOHE); assay: as above; settings: Application post-emergence, evaluated after 13 days (100=total damage to plant; 0=no damage to plant)
Method: as §1

[7] = system: Echinochloa crusgalli (ECHCG); assay: as above; settings: Application post-emergence, evaluated after 13 days (100=total damage to plant; 0=no damage to plant)
Method: as §1

[8] = system: Amaranthus retroflexus (AMARE); assay: as above; settings: Application post-emergence, evaluated after 13 days (100=total damage to plant; 0=no damage to plant)
Method: as §1

O=c1[nH]c2nccnc2c(O)c1-c1ccccc1 [Compound A22]
damage to the test plants [1]: no damage

COc1cccc(-c2c(O)c3nccnc3[nH]c2=O)c1OC [Compound A41]
damage to plant, Chenopodium album (CHEAL) [2]: 6
damage to plant, Digitaria sanguinalis (DIGSA) [3]: 6
damage to plant, Alopecurus myosuroides (ALOMY) [4]: 3
damage to plant, Amaranthus retroflexus (AMARE) [5]: 0

O=c1[nH]c2nccnc2c(O)c1-c1ccc(C(F)(F)F)cc1Br [Compound A43]
damage to plant, Chenopodium album (CHEAL) [2]: 8
damage to plant, Digitaria sanguinalis (DIGSA) [3]: 0
damage to plant, Alopecurus myosuroides (ALOMY) [4]: 0
damage to plant, Amaranthus retroflexus (AMARE) [5]: 7

CC(C)(C)C(=O)Oc1c(-c2cc(F)c(Cl)cc2Cl)c(=O)[nH]c2nccnc12 [Compound B48]
damage to the test plants [1]: no damage

CC(C)(C)C(=O)Oc1c(-c2ccc(C(F)(F)F)cc2Br)c(=O)[nH]c2nccnc12 [Compound B54]
damage to plant, Chenopodium album (CHEAL) [2]: 8
damage to plant, Digitaria sanguinalis (DIGSA) [3]: 0
damage to plant, Alopecurus myosuroides (ALOMY) [4]: 0
damage to plant, Amaranthus retroflexus (AMARE) [5]: 3

CC(=O)Oc1c(-c2ccc(Cl)cc2Cl)c(=O)n(C(C)C)c2nccnc12 [Compound C7]
damage to plant, Chenopodium album (CHEAL) [2]: 7
damage to plant, Digitaria sanguinalis (DIGSA) [3]: 3
damage to plant, Alopecurus myosuroides (ALOMY) [4]: 0
damage to plant, Amaranthus retroflexus (AMARE) [5]: 9

CCn1c(=O)c(-c2c(Cl)ccc(Cl)c2Cl)c(OC(=O)C(C)C)c2nccnc21 [Compound C107]
damage to plant, Chenopodium album (CHEAL) [2]: 10
damage to plant, Digitaria sanguinalis (DIGSA) [3]: 2
damage to plant, Alopecurus myosuroides (ALOMY) [4]: 0
damage to plant, Amaranthus retroflexus (AMARE) [5]: 10

CCn1c(=O)c(-c2cccc(C(F)(F)F)c2Cl)c(OC(=O)C(C)(C)C)c2nccnc21 [Compound C132]
damage to plant, Chenopodium album (CHEAL) [2]: 8
damage to plant, Digitaria sanguinalis (DIGSA) [3]: 0
damage to plant, Alopecurus myosuroides (ALOMY) [4]: 0
damage to plant, Amaranthus retroflexus (AMARE) [5]: 10

Cn1c(=O)c(-c2ccccc2)c(OC(=O)C(C)(C)C)c2nccnc21 [Compound C137]
damage to plant, Setaria faberi (SETFA) (Setaria faberi (SETFA)): 0
damage to plant, Solanum nigrum (SOLNI) (Solanum nigrum (SOLNI)): 0
damage to plant, Ipomea hederaceae (IPOHE) [6]: 5
damage to the test plants [1]: no damage
damage to plant, Echinochloa crusgalli (ECHCG) [7]: 0
damage to plant, Amaranthus retroflexus (AMARE) [8]: 9

CCn1c(=O)c(-c2ccc(C(F)(F)F)cc2[N+](=O)[O-])c(OC(=O)C(C)(C)C)c2nccnc21 [Compound C141]
damage to plant, Chenopodium album (CHEAL) [2]: 7
damage to plant, Digitaria sanguinalis (DIGSA) [3]: 0
damage to plant, Alopecurus myosuroides (ALOMY) [4]: 0
damage to plant, Amaranthus retroflexus (AMARE) [5]: 10

CCn1c(=O)c(-c2cc(-c3ccc(Cl)cc3)ccc2C)c(OC(=O)C(C)C)c2nccnc21 [Compound C156]
damage to plant, Chenopodium album (CHEAL) [2]: 0
damage to plant, Digitaria sanguinalis (DIGSA) [3]: 3
damage to plant, Alopecurus myosuroides (ALOMY) [4]: 8
damage to plant, Amaranthus retroflexus (AMARE) [5]: 0

Cn1c(=O)c(-c2c(F)c([N+](=O)[O-])cc(F)c2Cl)c(OC(=O)C(C)(C)C)c2nccnc21 [Compound C157]
damage to plant, Chenopodium album (CHEAL) [2]: 8
damage to plant, Digitaria sanguinalis (DIGSA) [3]: 0
damage to plant, Alopecurus myosuroides (ALOMY) [4]: 0
damage to plant, Amaranthus retroflexus (AMARE) [5]: 6

CCn1c(=O)c(-c2c(F)c([N+](=O)[O-])cc(F)c2Cl)c(OC(=O)C(C)(C)C)c2nccnc21 [Compound C158]
damage to plant, Chenopodium album (CHEAL) [2]: 10
damage to plant, Digitaria sanguinalis (DIGSA) [3]: 0
damage to plant, Alopecurus myosuroides (ALOMY) [4]: 0
damage to plant, Amaranthus retroflexus (AMARE) [5]: 9

Cc1cccc([N+](=O)[O-])c1-c1c(OC(=O)C(C)(C)C)c2nccnc2n(C)c1=O [Compound C161]
damage to plant, Chenopodium album (CHEAL) [2]: 2
damage to plant, Digitaria sanguinalis (DIGSA) [3]: 5
damage to plant, Alopecurus myosuroides (ALOMY) [4]: 0
damage to plant, Amaranthus retroflexus (AMARE) [5]: 6

CCn1c(=O)c(-c2cc(OC(F)(F)F)ccc2OC)c(OC(=O)C(C)(C)C)c2nccnc21 [Compound C167]
damage to plant, Setaria faberi (SETFA) (Setaria faberi (SETFA)): 2
damage to plant, Solanum nigrum (SOLNI) (Solanum nigrum (SOLNI)): 9
damage to plant, Ipomea hederaceae (IPOHE) [6]: 5
damage to plant, Echinochloa crusgalli (ECHCG) [7]: 5
damage to plant, Amaranthus retroflexus (AMARE) [8]: 10

Cn1c(=O)c(-c2ccccc2OC(F)F)c(OC(=O)C(C)(C)C)c2nccnc21 [Compound C168]
damage to plant, Setaria faberi (SETFA) (Setaria faberi (SETFA)): 2
damage to plant, Solanum nigrum (SOLNI) (Solanum nigrum (SOLNI)): 8
damage to plant, Ipomea hederaceae (IPOHE) [6]: 5
damage to plant, Echinochloa crusgalli (ECHCG) [7]: 3
damage to plant, Amaranthus retroflexus (AMARE) [8]: 10

CCn1c(=O)c(-c2ccccc2OC(F)F)c(OC(=O)C(C)(C)C)c2nccnc21 [Compound C169]
damage to plant, Setaria faberi (SETFA) (Setaria faberi (SETFA)): 0
damage to plant, Solanum nigrum (SOLNI) (Solanum nigrum (SOLNI)): 9
damage to plant, Ipomea hederaceae (IPOHE) [6]: 7
damage to plant, Echinochloa crusgalli (ECHCG) [7]: 0
damage to plant, Amaranthus retroflexus (AMARE) [8]: 9

Cc1cnc2c(OC(=O)C(C)(C)C)c(-c3c(F)ccc(F)c3Cl)c(=O)n(C)c2n1 [Compound C170]
damage to plant, Setaria faberi (SETFA) (Setaria faberi (SETFA)): 7
damage to plant, Solanum nigrum (SOLNI) (Solanum nigrum (SOLNI)): 6
damage to plant, Ipomea hederaceae (IPOHE) [6]: 4
damage to plant, Echinochloa crusgalli (ECHCG) [7]: 8
damage to plant, Amaranthus retroflexus (AMARE) [8]: 8

Cc1cc(C)c(-c2c(O)c3nccnc3n(C)c2=O)c(C)c1 [Compound D7]
damage to plant, Setaria faberi (SETFA) (Setaria faberi (SETFA)): 10
damage to plant, Solanum nigrum (SOLNI) (Solanum nigrum (SOLNI)): 10
damage to plant, Ipomea hederaceae (IPOHE) [6]: 9
damage to plant, Echinochloa crusgalli (ECHCG) [7]: 10
damage to plant, Amaranthus retroflexus (AMARE) [8]: 10

CCn1c(=O)c(-c2c(Cl)cc(OC(F)(F)F)cc2Cl)c(O)c2nccnc21 [Compound D11]
damage to plant, Setaria faberi (SETFA) (Setaria faberi (SETFA)): 9
damage to plant, Solanum nigrum (SOLNI) (Solanum nigrum (SOLNI)): 10
damage to plant, Ipomea hederaceae (IPOHE) [6]: 10
damage to plant, Echinochloa crusgalli (ECHCG) [7]: 10
damage to plant, Amaranthus retroflexus (AMARE) [8]: 10
